The results in this text go back to patent US20060178374A1, “Aminoheteroaryl compounds as protein kinase inhibitors” (AGOURON PHARMACEUTICALS, INC., priority 2004, published 2006).

In the first assay the target is HGFR (c-Met) (Homo sapiens, UniProt P08581). The experiment in a line: HGFR Continuous-Coupled Spectrophotometric Assay. The settings on record: HGFR enzyme 50 nM, Met-2 peptide substrate, 37° C. Type of assay: biochemical. The method, then: The general procedure is as follows: compounds and kinase assay reagents are introduced into test wells. The assay is initiated by addition of the kinase enzyme. Enzyme inhibitors reduce the measured activity of the enzyme.
Sequence of HGFR (c-Met) (P08581 974-1390): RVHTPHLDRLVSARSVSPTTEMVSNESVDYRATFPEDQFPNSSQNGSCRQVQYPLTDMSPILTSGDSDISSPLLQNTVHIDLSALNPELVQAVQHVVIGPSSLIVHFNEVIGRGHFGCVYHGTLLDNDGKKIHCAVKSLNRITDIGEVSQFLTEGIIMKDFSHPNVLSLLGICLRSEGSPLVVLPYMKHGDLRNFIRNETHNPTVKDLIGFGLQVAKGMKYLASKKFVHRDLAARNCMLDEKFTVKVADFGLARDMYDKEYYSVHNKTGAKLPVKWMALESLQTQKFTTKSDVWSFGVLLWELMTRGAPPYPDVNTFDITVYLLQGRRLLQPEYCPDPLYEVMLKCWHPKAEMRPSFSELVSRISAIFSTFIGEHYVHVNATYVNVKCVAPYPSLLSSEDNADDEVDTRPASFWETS
In the continuous-coupled spectrophotometric assay the time-dependent production of ADP by the kinase is determined by analysis of the rate of consumption of NADH by measurement of the decrease in absorbance at 340 nm. As the PK produces ADP it is re-converted to ATP by reaction with phosphoenol pyruvate and pyruvate kinase. Pyruvate is also produced in this reaction. Pyruvate is subsequently converted to lactate by reaction with lactate dehydrogenase, which simultaneously converts NADH to NAD.
HGFR Continuous-Coupled Spectrophotometric Assay
This assay analyzes the tyrosine kinase activity of HGFR on the Met-2 substrate peptide, a peptide derived from the activation loop of the HGFR.
• 1. […] Dissolve up in 200 mM HEPES, pH 7.5 at 10 mM stock. • 3. 1 M PEP (phospho-enol-pyruvate) in 200 mM HEPES, pH 7.5 • 4. 100 mM NADH (B-Nicotinamide Adenine Dinucleotide, Reduced Form) in 200 mM HEPES, pH 7.5 • 5. 4 M MgCl2 (Magnesium Chloride) in ddH2O 6. 1 M DTT (Dithiothreitol) in 200 mM HEPES, pH 7.5 • 7. 15 Units/mL LDH (Lactic Dehydrogenase) • 8. 15 Units/mL PK (Pyruvate Kinase) • 9. 5M NaCl dissolved in ddH2O • 10. Tween-20 (Protein Grade) 10% Solution • 11. 1 M HEPES buffer: (N-[2-Hydroxethyl]piperazine-N-[2-ethanesulfonic acid]) Sodium Salt. Dissolve in ddH2O, adjust pH to 7.5, bring volume to 1 L. Filter at 0.1 μm. • 12. […] 100% DMSO (SIGMA) • 14. […] Beckman DU-650 w/ micro cell holders • 18. Beckman 4-position micro cell cuvette Procedure:
Prep Dilution Buffer (DB) for Enzyme (For 30 mL prep) • 1. DB final concentration is 2 mM DTT, 25 mM NaCl2, 5 mM MgCl2, 0.01% Tween-20, and 50 mM HEPES buffer, pH 7.5. • 2. Make up 50 mM HEPES by adding 1.5 mL 1 M HEPES into 28.1 mL of ddH2O. Add rest of the reagents. Into 50 mL conical vial, add 60 μL of 1M DTT, 150 μL 5M NaCl2, 150 μL 1M MgCl2, and 30 μL of 10% Tween-20 to give total volume of 30 mL. • 3. Vortex for 5-10 seconds. • 4. Aliquot out DB at 1 mL/tube and label tubes as “DB HGFR” • 5. Note: This can be prepared and stored ahead of time. • 6. Freeze un-used aliquots in microcentrifuge tubes at −20° C. freezer.
Prep Compounds • 1. For compound dilution plate, add 4 μL of 10 mM stock into column 1 of plate, and bring volume to 100 μL with 100% DMSO. • 2. Set up the Precision 2000 dilution method. A final concentration of 200 μM compound in 50% DMSO, 100 mM HEPES (1:2 serial dilution).
Prep Coupled Enzymatic Buffer:
1. Final concentration in assay:
• 2. For a 10 mL reaction buffer add 10 μL of 1M PEP, 33 μL of 100 mM NADH, 50 μL of 4M MgCl2, 20 μL of 1M DTT, 6 μL of 500 mM ATP, and […] of 10 mM Met-2 peptide into 100 mM HEPES buffer pH 7.5 and vortex/mix. • 3. Add coupling enzymes, LDH and PK, into reaction mix. Mix by gentle inversion.
1. Spectrophotometer settings:
• 2. Add 85 μL of CE reaction mix into each well of assay plate. • 3. Add 5 μL of diluted compound into a well of the assay plate. • 4. Add 5 μL of 50% DMSO for negative control into last column of assay plate. • 5. Mix with multi-channel pipettor or orbital shaker. • 6. Pre-incubate for 10 minutes at 37° C. • 7. Add 10 μL of 500 nM HGFR to each well of assay plate; the final HGFR concentration is 50 nM in a total final volume of 100 μL. • 8. Measure activity for 10 minutes at λ=340 nm and 37° C.
Ki data were obtained using the HGFR Continuous-Coupled Spectrophotometric Assay, and IC50 data were obtained using the Cellular HGFR Autophosphorylation Assay, both of which are described above.
The Ki is the equilibrium dissociation constant of an inhibitor or competing ligand from its target. `CC(Oc1cc(-c2ccc(-c3ccno3)cc2)cnc1N)c1c(Cl)ccc(F)c1Cl` (centres unmarked) [Example 25, 3-[1-(2,6-dichloro-3-fluorophenyl)ethoxy]-5-(4-isoxazol-5-ylphenyl)pyridin-2-amine] yielded a Ki of 87.7 nM.

`COc1cc(-c2cnc(N)c(OC(C)c3c(Cl)ccc(F)c3Cl)c2)ccc1CO` (centres unmarked) [Example 26, (4-{6-amino-5-[1-(2,6-dichloro-3-fluorophenyl)ethoxy]pyridin-3-yl}-2-methoxyphenyl) methanol] came in with an inhibition constant Ki of 79.5 nM.

`COc1cc(-c2cnc(N)c(OC(C)c3c(Cl)ccc(F)c3Cl)c2)ccc1CN1C[C@@H](C)N[C@@H](C)C1` (stereo partly drawn) [Example 27, 3-[1-(2,6-dichloro-3-fluorophenyl)ethoxy]-5-(4-{[(3R,5S)-3,5-dimethylpiperazin-1-yl]methyl}-3-methoxyphenyl)pyridin-2-amine] had a Ki of 21.6 nM. Compared with the last molecule, the Ki is about 3.7-fold lower.

Turning to `COc1cc(-c2cnc(N)c(OC(C)c3c(Cl)ccc(F)c3Cl)c2)ccc1C(=O)N1CCNCC1` (centres unmarked) [Example 28, 3-[1-(2,6-dichloro-3-fluorophenyl)ethoxy]-5-[3-methoxy-4-(piperazin-1-ylcarbonyl)phenyl]pyridin-2-amine], the Ki came out at 26.4 nM.

As to `COc1cc(-c2cnc(N)c(OC(C)c3c(Cl)ccc(F)c3Cl)c2)ccc1CN1CCNCC1` (centres unmarked) [Example 29, 3-[1-(2,6-dichloro-3-fluorophenyl)ethoxy]-5-[3-methoxy-4-(piperazin-1-ylmethyl)phenyl]pyridin-2-amine], the affinity, expressed as Ki, was 12.3 nM.

`CC(Oc1cc(-c2ccc(C3(O)CCNCC3)nc2)cnc1N)c1c(Cl)ccc(F)c1Cl` (centres unmarked) [Example 30] showed a Ki of 21.9 nM.

The molecule `COc1cc(-c2cnc(N)c(OC(C)c3c(Cl)ccc(F)c3Cl)c2)ccc1COC(=O)N(C)C` (centres unmarked) [Example 31, 4-{6-amino-5-[1-(2,6-dichloro-3-fluorophenyl)ethoxy]pyridin-3-yl}-2-methoxybenzyl dimethylcarbamate] returned a Ki of 149 nM.

In turn, `CC(Oc1cc(-c2ccc(OCC(=O)N3CCNCC3)cc2)cnc1N)c1c(Cl)ccc(F)c1Cl` (centres unmarked) [Example 33, 2-(4-{6-Amino-5-[1-(2,6-dichloro-3-fluoro-phenyl)-ethoxy]-pyridin-3-yl}-phenoxy)-1-piperazin-1-yl-ethanone] yielded a Ki of 14700 nM.

`CC(Oc1cc(-c2ccc(OC3CCNCC3)cc2)cnc1N)c1c(Cl)ccc(F)c1Cl` (centres unmarked) [Example 34, 3-[1-(2,6-Dichloro-3-fluoro-phenyl)-ethoxy]-5-[4-(piperidin-4-yloxy)-phenyl]-pyridin-2-ylamine] had a Ki of 40 nM.

Molecule `C[C@@H]1CN(C(=O)c2ccc(-c3cnc(N)c(OC4CCCCc5ccc(F)cc54)c3)cc2)C[C@H](C)N1` (stereo partly drawn) [Example 36, {4-[6-Amino-5-(3-fluoro-6,7,8,9-tetrahydro-5H-benzocyclohepten-5-yloxy)-pyridin-3-yl]-phenyl}-((3R,5S)-3,5-dimethyl-piperazin-1-yl)-methanone] came in with a Ki of 6280 nM. Against the preceding molecule, the Ki is about 160-fold higher.

With `Nc1ncc(-c2ccc(OCCN3CCCC3)cc2)cc1OC1CCCCc2ccc(F)cc21` (centres unmarked) [Example 37, 3-(3-Fluoro-6,7,8,9-tetrahydro-5H-benzocyclohepten-5-yloxy)-5-[4-(2-pyrrolidin-1-yl-ethoxy)-phenyl]-pyridin-2-ylamine], affinity was put at a Ki of 8270 nM. The Ki values of the last two molecules are within 1.5-fold of each other.

`CS(=O)(=O)Nc1ccc(-c2cnc(N)c(OC3CCCCc4ccc(F)cc43)c2)cc1` (centres unmarked) [Example 38, N-{4-[6-Amino-5-(3-fluoro-6,7,8,9-tetrahydro-5H-benzocyclohepten-5-yloxy)-pyridin-3-yl]-phenyl}-methanesulfonamide] gave a Ki of 7120 nM.

`CC(Oc1cc(-c2ccc(NC(=O)N3CCC(NC4CC4)CC3)cc2)cnc1N)c1c(Cl)ccc(F)c1Cl` (centres unmarked) [Example 39, 4-Cyclopropylamino-piperidine-1-carboxylic acid (4-{6-amino-5-[1-(2,6-dichloro-3-fluoro-phenyl)-ethoxy]-pyridin-3-yl}-phenyl)-amide] yielded a Ki of 95 nM.

The molecule `CC(Oc1cc(-c2ccc(NC(=O)N3CCNCC3)cc2)cnc1N)c1c(Cl)ccc(F)c1Cl` (centres unmarked) [Example 40, Piperazine-1-carboxylic acid (4-{6-amino-5-[1-(2,6-dichloro-3-fluoro-phenyl)-ethoxy]-pyridin-3-yl}-phenyl)-amide] displayed a Ki of 88 nM.

Molecule `CCOC(=O)c1[nH]c(C)c(-c2cnc(N)c(OC(C)c3c(Cl)ccc(F)c3Cl)c2)c1C` (centres unmarked) [Example 41, 4-{6-Amino-5-[1-(2,6-dichloro-3-fluoro-phenyl)-ethoxy]-pyridin-3-yl}-3,5-dimethyl-1H-pyrrole-2-carboxylic acid ethyl ester] had a Ki of 2090 nM. This Ki is about 24-fold higher than that of the molecule before.

`Cc1[nH]c(C(=O)O)c(C)c1-c1cnc(N)c(OC(C)c2c(Cl)ccc(F)c2Cl)c1` (centres unmarked) [Example 42, 4-{6-Amino-5-[1-(2,6-dichloro-3-fluoro-phenyl)-ethoxy]-pyridin-3-yl}-3,5-dimethyl-1H-pyrrole-2-carboxylic acid] had a Ki of 1250 nM.

Molecule `Cc1[nH]c(C(=O)NCCCN(C)C)c(C)c1-c1cnc(N)c(OC(C)c2c(Cl)ccc(F)c2Cl)c1` (centres unmarked) [Example 43, 4-{6-Amino-5-[1-(2,6-dichloro-3-fluoro-phenyl)-ethoxy]-pyridin-3-yl}-3,5-dimethyl-1H-pyrrole-2-carboxylic acid (3-dimethylamino-propyl)-amide] returned a Ki of 451 nM.

The molecule `Cc1[nH]c(C(=O)NCCN(C)C)c(C)c1-c1cnc(N)c(OC(C)c2c(Cl)ccc(F)c2Cl)c1` (centres unmarked) [Example 44, 4-{6-Amino-5-[1-(2,6-dichloro-3-fluoro-phenyl)-ethoxy]-pyridin-3-yl}-3,5-dimethyl-1H-pyrrole-2-carboxylic acid (2-dimethylamino-ethyl)-amide] came in with an inhibitory constant (Ki) of 262 nM.

As to `CC(Oc1cc(-c2cccc(NC(=O)N3CCNCC3)c2)cnc1N)c1c(Cl)ccc(F)c1Cl` (centres unmarked) [Example 45, Piperazine-1-carboxylic acid (3-{6-amino-5-[1-(2,6-dichloro-3-fluoro-phenyl)-ethoxy]-pyridin-3-yl}-phenyl)-amide], the Ki is 96 nM.

For `C[C@@H](Oc1nc(-c2ccc(C(=O)O)cc2)cnc1N)c1c(Cl)ccc(F)c1Cl` [Example 47, 4-{5-Amino-6-[(R)-1-(2,6-dichloro-3-fluoro-phenyl)-ethoxy]-pyrazin-2-yl}-benzoic acid], the Ki turned out to be 154 nM.

`C[C@@H](Oc1nc(-c2ccc(C(=O)N3CCNCC3)cc2)cnc1N)c1c(Cl)ccc(F)c1Cl` [Example 48, (4-{5-Amino-6-[(R)-1-(2,6-dichloro-3-fluoro-phenyl)-ethoxy]-pyrazin-2-yl}-phenyl)-piperazin-1-yl-methanone]: the Ki amounted to 27 nM.

On to `C[C@@H](Oc1nc(-c2ccc(C(=O)N3CCN(C(=O)OC(C)(C)C)CC3)cc2)cnc1N)c1c(Cl)ccc(F)c1Cl` [Example 49, 4-(4-{5-Amino-6-[(R)-1-(2,6-dichloro-3-fluoro-phenyl)-ethoxy]-pyrazin-2-yl}-benzoyl)-piperazine-1-carboxylic acid tert-butyl ester], for which the affinity, expressed as Ki, was 335 nM.

Still in this assay, the particulars now being: compound at 1 μM.
In general, inhibition refers to the percentage by which the read-out fell short of the control. A lower inhibition goes with a weak effect. The molecule `Nc1ncc(Br)cc1OC1CCCCc2ccc(F)cc21` (centres unmarked) [Example 35, 5-Bromo-3-(3-fluoro-6,7,8,9-tetrahydro-5H-benzocyclohepten-5-yloxy)-pyridin-2-ylamine] displayed an inhibition at 1 µM of 9%.
